Laboratory results: patent US20250026719A1, “NOVEL COMPOUNDS AS INHIBITORS OF PCSK9” (SHENGKE PHARMACEUTICALS (JIANGSU) LTD., priority 2021, published 2025)

Assays:
HepG2 cells = assay: HepG2 cell viability assay (CellTiter-Glo, cellular ATP); type: cell-based; settings: 24 hr, serum-free OptiMEM
Protocol: (§1) HepG2 cells (ATCC, Cat.:HB-8065) were maintained in Growth medium—Eagle's Minimum Essential Medium (Corning, 10-010-CVR), 10% FBS (Gibco, 10099-141), Penicillin (100 units/mL), Streptomycin (100 μg/mL). HepG2 cells were incubated at 37° C., 5% CO2. HepG2 cells were plated in black clear bottom 96-well plates (Corning, 3063) at 40,000 cells/well in 100 μL of growth media. After an overnight incubation, the culture media were changed to serum-free OptiMEM media (Gibco, 31985-062), 90 μL/well. Vehicle, PF-06446846 hydrochloride, berberine, or test compound was added to the culture media, 10 μL/well. After 24 hr cellular ATP levels were measured using CellTiter-Glo® 2.0 Assay (Promega, G9242).

PCSK9 = PCSK9 ELISA of HepG2 culture medium; type: cell-based; settings: 24 hr
Protocol: as §1, with “flat” for “black clear”, “3599)” for “3063)”, “media(Gibco,” for “media (Gibco,”, “medium was harvested, and 10 μL of the medium” for “cellular ATP levels”, “used for the PCSK9 ELISA(R&D Systems, SPC900).” for “measured using CellTiter-Glo® 2.0 Assay (Promega, G9242).”

PCSK9 mRNA = assay: RT-Q-PCR analysis of PCSK9 mRNA in HepG2 cells; type: cell-based; settings: Homo sapiens, 24 h, normalized to GAPDH, read-out: HepG2 Q-PCR PCSK9 mRNA level decrease (10 μM)
Protocol: HepG2 cells (ATCC, Cat.:HB-8065) were maintained in Growth medium—Eagle's Minimum Essential Medium (Corning, 10-010-CVR), 10% FBS (Gibco, 10099-141), Penicillin (100 units/mL), Streptomycin (100 μg/mL). HepG2 cells were incubated at 37° C., 5% CO2.
Cells were cultured in growth medium as described above and treated with the vehicle, Berberine or test compound for 24 h. The RNA was extracted using the Total RNA mini Kit (Tiangen, Beijing, China) according to the manufacturer's instructions. Reverse transcription was carried out using the High-Capacity cDNA reverse transcription kit (Thermo Fisher Scientific). Quantitative real-time PCR was performed using a reaction mixture containing cDNA, specific primers [PCSK9, 5′-[…]-3′ (forward) and 5′-[…]-3′ (reverse); GAPDH, 5′-[…]-3′ (forward) and 5′-[…]-3′ (reverse)] and Maxima SYBR Green/ROX qPCR Master Mix(Thermo Fisher Scientific). PCR amplification was carried out in a Real-Time PCR System. The real-time PCR conditions were 37° C. 10 min; 95° C. 10 min; 95° C. 15 s, 60° C. 30 s, 72° C. 30 s, 40 cycle. The amount of mRNA was normalized to the GAPDH level in the same samples.

[1] = Metabolic stability in human liver microsomes; type: in vitro ADME; settings: human liver microsomes 0.5 mg/mL, 37° C., read-out: Metabolic stability T1/2 (minute) Human
Protocol: (§2) Metabolic Stability of Test Compounds in Incubation with Human, and Rat Liver Microsomes Study Details: • Test concentration: 1 μM; • Reference compound: Ketanserin; • Test systems: human, and rat liver microsomes (from Corning or Xenotech) with final liver microsomal protein concentration of 0.5 mg/mL; • Incubation condition: 0, 5, 15, 30, and 45 min at 37° C.; • Sample size: Duplicates (n=2); • Bioanalytical method: LC-MS/MS;
(§3) [formula] [formula] [formula] • where QH is the hepatic blood flow (mL/min/kg), fub is the fraction of unbound drug in plasma which is assumed to be 1, Clint is the in vitro intrinsic clearance.

[2] = Metabolic stability in rat liver microsomes; type: in vitro ADME; settings: rat liver microsomes 0.5 mg/mL, 37° C., read-out: Metabolic stability T1/2 (minute) Rat
Protocol: as §2, §3

## COc1ccc(Oc2ccc(NC(=O)CN(CC(=O)NC3CC3)C(=O)c3ccc(C(F)(F)F)[nH]3)cc2)cc1 [Compound 201-322]
HepG2 cells
  HepG2 Survival assay (10 μM): 89.6%

## CC(C)c1ccc(Oc2ccc(NC(=O)CN(CC(=O)NC3CC3)C(=O)c3ccc(C(F)(F)F)[nH]3)cc2)cc1 [Compound 201-320]
HepG2 cells
  HepG2 Survival assay (10 μM): 87.3%
PCSK9
  HepG2 PCSK9 ELISA (10 μM) % inhibition: 93%
PCSK9 mRNA
  inhibition at 10 µM: 80%
[1]
  half-life at 1 μM: 93 min
[2]
  half-life at 1 μM: 20.8 min

## CC(C)c1ccc(Oc2ccc(NC(=O)CN(CC(=O)NC3CC3)C(=O)c3cc4cccc(C#N)c4[nH]3)cc2)cc1 [Compound 201-324]
HepG2 cells
  HepG2 Survival assay (10 μM): 101.5%
PCSK9
  HepG2 PCSK9 ELISA (10 μM) % inhibition: 72%

## CC(C)NC(=O)CN(CC(=O)Nc1ccc(Oc2ccc(F)c(F)c2)cc1)C(=O)c1cc2cccc(F)c2[nH]1 [Compound 201-277]
HepG2 cells
  HepG2 Survival assay (10 μM): 90%
PCSK9
  HepG2 PCSK9 ELISA (10 μM) % inhibition: 100%
PCSK9 mRNA
  inhibition at 10 µM: 86%
[1]
  half-life at 1 μM: 40.2 min
[2]
  half-life at 1 μM: 45.4 min

## CC(C)NC(=O)CN(CC(=O)Nc1ccc(Oc2ccc(C(C)C)cc2)cc1)C(=O)c1ccc(C(F)(F)F)o1 [Compound 201-315]
HepG2 cells
  HepG2 Survival assay (10 μM): 102%
PCSK9
  HepG2 PCSK9 ELISA (10 μM) % inhibition: 89%

## COc1ccc(Oc2ccc(NC(=O)CN(CC(=O)NC(C)C)C(=O)c3ccc(C(F)(F)F)o3)cc2)cc1 [Compound 201-317]
HepG2 cells
  HepG2 Survival assay (10 μM): 100.8%

## CC(C)c1ccc(Oc2ccc(NC(=O)CN(CC(=O)NC3CC3)C(=O)c3cc4cccc(F)c4[nH]3)cc2)cc1 [Compound 201-312]
HepG2 cells
  HepG2 Survival assay (10 μM): 102.7%
PCSK9
  HepG2 PCSK9 ELISA (10 μM) % inhibition: 89%
PCSK9 mRNA
  inhibition at 10 µM: 50%
[1]
  half-life at 1 μM: 52.8 min
[2]
  half-life at 1 μM: 29.6 min

## CC(C)c1ccc(Oc2ccc(NC(=O)CN(CC(=O)NC3CC3)C(=O)c3ccc(C(F)(F)F)o3)cc2)cc1 [Compound 201-316]
HepG2 cells
  HepG2 Survival assay (10 μM): 108.4%
PCSK9
  HepG2 PCSK9 ELISA (10 μM) % inhibition: 89%

## CC(C)NC(=O)CN(CC(=O)Nc1ccc(Oc2cc(F)c(F)c(F)c2)cc1)C(=O)c1cc2cccc(C#N)c2[nH]1 [Compound 201-332]
HepG2 cells
  HepG2 Survival assay (10 μM): 99%
PCSK9
  HepG2 PCSK9 ELISA (10 μM) % inhibition: 89%
PCSK9 mRNA
  inhibition at 10 µM: 85%
[1]
  half-life at 1 μM: 22.4 min
[2]
  half-life at 1 μM: 38.7 min

## CC(C)NC(=O)CN(CC(=O)Nc1ccc(Oc2ccc(C(C)C)cc2)cc1)C(=O)c1cc2cccc(C#N)c2[nH]1 [Compound 201-323]
HepG2 cells
  HepG2 Survival assay (10 μM): 105.6%
PCSK9
  HepG2 PCSK9 ELISA (10 μM) % inhibition: 79%

## O=C(CN(CC(=O)NC1CC1)C(=O)c1cc2cccc(F)c2[nH]1)Nc1ccc(Oc2ccc(C(F)(F)F)cc2)cc1 [Compound 201-287]
HepG2 cells
  HepG2 Survival assay (10 μM): 96%
PCSK9
  HepG2 PCSK9 ELISA (10 μM) % inhibition: 99%
PCSK9 mRNA
  inhibition at 10 µM: 56%
[1]
  half-life at 1 μM: 100 min
[2]
  half-life at 1 μM: 138 min

## CC(C)NC(=O)CN(CC(=O)Nc1ccc(Oc2ccc(C(F)F)cc2)cc1)C(=O)c1cc2cccc(C#N)c2[nH]1 [Compound 201-329]
HepG2 cells
  HepG2 Survival assay (10 μM): 106%
PCSK9
  HepG2 PCSK9 ELISA (10 μM) % inhibition: 91%
PCSK9 mRNA
  inhibition at 10 µM: 73%
[1]
  half-life at 1 μM: 14.3 min
[2]
  half-life at 1 μM: 17.5 min

## CC(C)NC(=O)CN(CC(=O)Nc1ccc(Oc2ccc(F)c(F)c2)cc1)C(=O)c1ccc(C(F)(F)F)[nH]1 [Compound 201-283]
HepG2 cells
  HepG2 Survival assay (10 μM): 97%
PCSK9
  HepG2 PCSK9 ELISA (10 μM) % inhibition: 100%
PCSK9 mRNA
  inhibition at 10 µM: 77%
[1]
  half-life at 1 μM: 77.8 min
[2]
  half-life at 1 μM: 49.6 min

## CCc1ccc(Oc2ccc(NC(=O)CN(CC(=O)NC(C)C)C(=O)c3cc4cccc(F)c4[nH]3)cc2)cc1 [Compound 201-276]
HepG2 cells
  HepG2 Survival assay (10 μM): 99%
PCSK9
  HepG2 PCSK9 ELISA (10 μM) % inhibition: 94%
PCSK9 mRNA
  inhibition at 10 µM: 54%
[1]
  half-life at 1 μM: 46.7 min
[2]
  half-life at 1 μM: 42.4 min

## O=C(CN(CC(=O)NC1CC1)C(=O)c1ccc(C(F)(F)F)[nH]1)Nc1ccc(Oc2ccc(C(F)(F)F)cc2)cc1 [Compound 201-293]
HepG2 cells
  HepG2 Survival assay (10 μM): 99%
PCSK9
  HepG2 PCSK9 ELISA (10 μM) % inhibition: 100%
PCSK9 mRNA
  inhibition at 10 µM: 50%
[1]
  half-life at 1 μM: 98.7 min
[2]
  half-life at 1 μM: 417 min

## COc1ccc(Oc2ccc(NC(=O)CN(CC(=O)NC3CC3)C(=O)c3cc4cccc(F)c4[nH]3)cc2)cc1 [Compound 201-314]
HepG2 cells
  HepG2 Survival assay (10 μM): 103.7%
PCSK9
  HepG2 PCSK9 ELISA (10 μM) % inhibition: 97%

## CC(C)NC(=O)CN(CC(=O)Nc1ccc(Oc2ccc(C(F)(F)F)cc2)cc1)C(=O)c1ccc(C(F)(F)F)[nH]1 [Compound 201-281]
HepG2 cells
  HepG2 Survival assay (10 μM): 98%
PCSK9
  HepG2 PCSK9 ELISA (10 μM) % inhibition: 100%
PCSK9 mRNA
  inhibition at 10 µM: 70%
[1]
  half-life at 1 μM: 159 min
[2]
  half-life at 1 μM: 428 min

## COc1ccc2cc3[n+](cc2c1OC)CCc1cc2c(cc1-3)OCO2 [Berberine, reference compound]
PCSK9
  HepG2 PCSK9 ELISA (10 μM) % inhibition: 52%
PCSK9 mRNA
  inhibition at 10 µM: 35%

## CC(C)NC(=O)CN(CC(=O)Nc1ccc(Oc2ccc(C(C)C)cc2)cc1)C(=O)c1ccc(C(F)(F)F)[nH]1 [Compound 201-319]
HepG2 cells
  HepG2 Survival assay (10 μM): 76.1%
PCSK9
  HepG2 PCSK9 ELISA (10 μM) % inhibition: 96%
PCSK9 mRNA
  inhibition at 10 µM: 60%

## CC(C)NC(=O)CN(CC(=O)Nc1ccc(Oc2ccc(C(F)(F)F)cc2)cc1)C(=O)c1cc2cccc(F)c2[nH]1 [Compound 201-275]
HepG2 cells
  HepG2 Survival assay (10 μM): 92%
PCSK9
  HepG2 PCSK9 ELISA (10 μM) % inhibition: 80%
PCSK9 mRNA
  inhibition at 10 µM: 75%
[1]
  half-life at 1 μM: 57.2 min
[2]
  half-life at 1 μM: 341 min

## COc1ccc(Oc2ccc(NC(=O)CN(CC(=O)NC3CC3)C(=O)c3cc4cccc(C#N)c4[nH]3)cc2)cc1 [Compound 201-326]
HepG2 cells
  HepG2 Survival assay (10 μM): 112.5%
PCSK9
  HepG2 PCSK9 ELISA (10 μM) % inhibition: 83%

## CC(C)NC(=O)CN(CC(=O)Nc1ccc(Oc2ccc(C(F)(F)F)cc2)cc1)C(=O)c1cc2cccc(C#N)c2[nH]1 [Compound 201-284]
HepG2 cells
  HepG2 Survival assay (10 μM): 101%
PCSK9
  HepG2 PCSK9 ELISA (10 μM) % inhibition: 94%
PCSK9 mRNA
  inhibition at 10 µM: 90%
[1]
  half-life at 1 μM: 64 min
[2]
  half-life at 1 μM: 66 min

## COc1ccc(Oc2ccc(NC(=O)CN(CC(=O)NC(C)C)C(=O)c3cc4cccc(F)c4[nH]3)cc2)cc1 [Compound 201-313]
HepG2 cells
  HepG2 Survival assay (10 μM): 89.4%
PCSK9
  HepG2 PCSK9 ELISA (10 μM) % inhibition: 98%

## CC(C)NC(=O)CN(CC(=O)Nc1ccc(Oc2ccc(C(F)F)cc2)cc1)C(=O)c1cc2cccc(F)c2[nH]1 [Compound 201-327]
HepG2 cells
  HepG2 Survival assay (10 μM): 98%
PCSK9
  HepG2 PCSK9 ELISA (10 μM) % inhibition: 90%
PCSK9 mRNA
  inhibition at 10 µM: 88%
[1]
  half-life at 1 μM: 14.4 min
[2]
  half-life at 1 μM: 35.4 min

## CC(C)NC(=O)CN(CC(=O)Nc1ccc(Oc2ccc(C(C)C)cc2)cc1)C(=O)c1cc2cccc(F)c2[nH]1 [Compound 201-311]
HepG2 cells
  HepG2 Survival assay (10 μM): 105.9%
PCSK9
  HepG2 PCSK9 ELISA (10 μM) % inhibition: 85%

## CC(C)NC(=O)CN(CC(=O)Nc1ccc(Oc2cc(F)c(F)c(F)c2)cc1)C(=O)c1cc2cccc(F)c2[nH]1 [Compound 201-331]
HepG2 cells
  HepG2 Survival assay (10 μM): 103%
PCSK9
  HepG2 PCSK9 ELISA (10 μM) % inhibition: 87%
PCSK9 mRNA
  inhibition at 10 µM: 92%
[1]
  half-life at 1 μM: 20.6 min
[2]
  half-life at 1 μM: 41 min

## COc1ccc(Oc2ccc(NC(=O)CN(CC(=O)NC3CC3)C(=O)c3ccc(C(F)(F)F)o3)cc2)cc1 [Compound 201-318]
HepG2 cells
  HepG2 Survival assay (10 μM): 101.6%
